The target in this test is T1, human full-length HSP90 (Homo sapiens, UniProt P08238).
T1 construct: E. coli expressed human full-length HSP90 protein, purified >95%; made in house; host or cells: E. coli
The experiment in a line: Fluorescence polarization (FP) binding assay. Conditions: competitive displacement of fluorescein-labelled probe from human full-length HSP90, activity range. The text has this: Fluorescence Polarization Assay
Fluorescence polarization {also known as fluorescence anisotropy} measures the rotation of a fluorescing species in solution, where the larger molecule the more polarized the fluorescence emission. When the fluorophore is excited with polarized light, the emitted light is also polarized. The molecular size is proportional to the polarization of the fluorescence emission.
The fluoroscein-labelled probe—
binds to HSP90 {full-length human, full-length yeast or N-terminal domain HSP90} and the anisotropy {rotation of the probe:protein complex} is measured.
Test compound is added to the assay plate, left to equilibrate and the anisotropy measured again. Any change in anisotropy is due to competitive binding of compound to HSP90, thereby releasing probe.
Stored at room temperature. • 3) BSA (bovine serum albumen) 10 mg/ml (New England Biolabs # B9001S) • 4) 20 mM probe in 100% DMSO stock concentration. Stored in the dark at RT. Working concentration is 200 nM diluted in AR water and stored at 4° C.
• 1) Add 100 μl×buffer to wells 1A and 12A(=FP BLNK) • 2) Prepare assay mix—all reagents are kept on ice with a lid on the bucket as the probe is light-sensitive.
• 3) Aliquot 100 μl assay mix to all other wells • 4) Seal plate and leave in dark at room temp for 20 minutes to equilibrate
This gives 2.5 mM {50×} stock cpd−assuming cpds 20 mM. • 4) Repeat for wells A2 to A10. Control in columns 11 and 12. • 5) Transfer 5 μl from row A to row B—not column 12. Mix well. • 6) Transfer 5 μl from row B to row C. […] Add 2 μl of 100 mM standard cpd to wells B12-H12 {is positive control} • 13) The Z′ factor is calculated from zero controls and positive wells.
For orientation: Fluorescence polarisation rises when a labelled molecule tumbles more slowly, as on binding a larger partner.

[1] abbreviates: read-out: activity in the fluorescence polarization assay.
Where [2] appears, read: read-out: ACTIVITY* (Activity in the FP binding assay).

pIC50: −log10 of the molar value. Like-named read-outs stand apart in the source and are kept apart here.

T1 sequence (P08238 whole entry): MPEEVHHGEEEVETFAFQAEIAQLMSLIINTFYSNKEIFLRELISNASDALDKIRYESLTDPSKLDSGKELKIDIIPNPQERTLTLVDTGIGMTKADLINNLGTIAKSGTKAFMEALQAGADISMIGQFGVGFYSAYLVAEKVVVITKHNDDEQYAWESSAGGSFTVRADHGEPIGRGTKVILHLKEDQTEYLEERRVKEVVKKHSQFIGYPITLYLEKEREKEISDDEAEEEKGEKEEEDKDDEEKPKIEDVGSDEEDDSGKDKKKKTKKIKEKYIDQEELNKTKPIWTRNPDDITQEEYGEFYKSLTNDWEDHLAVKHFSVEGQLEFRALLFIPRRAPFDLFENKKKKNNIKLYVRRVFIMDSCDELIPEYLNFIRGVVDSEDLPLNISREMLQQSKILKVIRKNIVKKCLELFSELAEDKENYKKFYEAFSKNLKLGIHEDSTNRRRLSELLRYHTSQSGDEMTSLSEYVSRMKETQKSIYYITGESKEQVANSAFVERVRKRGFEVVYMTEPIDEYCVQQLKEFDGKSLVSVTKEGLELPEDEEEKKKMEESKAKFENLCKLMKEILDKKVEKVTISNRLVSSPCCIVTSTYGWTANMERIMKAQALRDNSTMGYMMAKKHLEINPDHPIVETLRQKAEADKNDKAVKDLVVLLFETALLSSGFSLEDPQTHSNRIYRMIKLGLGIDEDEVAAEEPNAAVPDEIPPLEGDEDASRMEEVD

As to `CSc1nc(-c2ccc(F)cc2C)c2c(C(N)=O)c[nH]c2n1` [Example 40, 4-(4-Fluoro-2-methyl-phenyl)-2-methylsulfanyl-7H-pyrrolo[2,3-d]pyrimidine-5-carboxylic Acid Amide], the pIC50 under setting [1] is less than 5.00.
`CSc1nc(-c2ccc(Cl)cc2Cl)c2c(C#N)c[nH]c2n1` [Example 41, 4-(Dichloro-phenyl)-2-methylsulfanyl-7H-pyrrolo[2,3-d]pyrimidine-5-carbonitrile]: the pIC50 under setting [1] was greater than 6.30.
As to `COc1cc(-c2nc(SC)nc3[nH]cc(C#N)c23)c(Cl)cc1C#N` [Example 42, 4-(2-Chloro-4-cyano-5-methoxy)-2-methylsulfanyl-7H-pyrrolo[2,3-d]pyrimidine-5-carbonitrile], the pIC50 under setting [1] is greater than 6.30.
Same read-out and setting: the figure for `CSc1nc(-c2ccc3c(c2)OCCO3)c2c(C#N)c[nH]c2n1` [Example 43, 4-(2,3-Dihydro-benzo[1,4]dioxin-6-yl)-2-methylsulfanyl-7H-pyrrolo[2,3-d]pyrimidine-5-carbonitrile] is less than 5.00.
Turning to `COc1ccc(-c2nc(SC)nc3[nH]cc(C#N)c23)cc1OC` [Example 44, 4-(Dimethoxy-phenyl)-2-methylsulfanyl-7H-pyrrolo[2,3-d]pyrimidine-5-carbonitrile], under setting [1], the pIC50 is greater than 6.30.
Still for that read-out and setting: as for `CCN(CC)CCOc1cc(-c2nc(SC(C)C)nc3[nH]cc(C#N)c23)c(Cl)cc1OC` [Example 45, 4-[2-Chloro-5-(2-diethylamino-ethoxy)-4-methoxy-phenyl]-2-isopropylsulfanyl-7H-pyrrolo[2,3-d]pyrimidine-5-carbonitrile], the figure is greater than 6.30.
`CCN(CC)CC[S+]([O-])c1nc(-c2cc(OC)c(OC)cc2Cl)c2c(C#N)c[nH]c2n1` (centres unmarked) [Example 46, 4-(2-Chloro-4,5-dimethoxy-phenyl)-2-(2-diethylamino-ethanesulfinyl)-7H-pyrrolo[2,3-d]pyrimidine-5-carbonitrile]: the pIC50 under setting [1] was 5.00 to 6.30.
The same measure, in the same setting: the figure for `COc1cc(Cl)c(-c2nc([S+](C)[O-])nc3[nH]cc(C#N)c23)cc1OC` (centres unmarked) [Example 47] is 5.00 to 6.30; for `COc1cc(Cl)c(-c2nc(S(C)(=O)=O)nc3[nH]cc(C#N)c23)cc1OC` [Example 48, 4-(2-Chloro-4,5-dimethoxy-phenyl)-2-methanesulfonyl-7H-pyrrolo[2,3-d]pyrimidine-5-carbonitrile] it is 5.00 to 6.30; for `CCOC(=O)CSc1nc(-c2cc(OCCN3CCC(F)(F)C3)c(OC)cc2Cl)c2c(C#N)c[nH]c2n1` [Example 49, (4-{2-Chloro-5-[2-(3,3-difluoro-pyrrolidin-1-yl)-ethoxy]-4-methoxy-phenyl}-5-cyano-7H-pyrrolo[2,3-d]pyrimidin-2-ylsulfanyl)-acetic Acid Ethyl Ester] it is greater than 6.30.
Same read-out and setting: the figure for `COc1cc(Cl)c(-c2nc(SCC(=O)O)nc3[nH]cc(C#N)c23)cc1OCCN1CCC(F)(F)C1` [Example 50, (4-{2-Chloro-5-[2-(3,3-difluoro-pyrrolidin-1-yl)-ethoxy]-4-methoxy-phenyl}-5-cyano-7H-pyrrolo[2,3-d]pyrimidin-2-ylsulfanyl)-acetic Acid] is greater than 6.30.
For `N#Cc1c[nH]c2nc(OCCN3CCC(F)(F)CC3)nc(-c3cc(OCc4ccccc4)c(Cl)cc3Cl)c12` [Example 52], the pIC50 under setting [2] was 5.00 to 6.30.
As to `CCN(CC)CCOc1nc(-c2ccc(OC)c(OC)c2)c2c(C#N)c[nH]c2n1` [Example 53], under setting [2], the pIC50 is 5.00 to 6.30.
As for `CSc1nc(-c2cc(OCc3ccccc3)c(Cl)cc2Cl)c2c(C#N)c[nH]c2n1` [Example 54], the pIC50 under setting [2] is 5.00 to 6.30.
On the same count and under the same terms, as for `COc1cc(-c2nc(SC)nc3[nH]cc(C#N)c23)ccc1C#N` [Example 55], the figure is 5.00 to 6.30; as for `CCN(CC)CCOc1nc(-c2cc(OC)c(OC)cc2Cl)c2c(C#N)c[nH]c2n1` [Example 56], greater than 6.30.
As to `COc1cc(Cl)c(-c2nc(OCCCN3CCCC3=O)nc3[nH]cc(C#N)c23)cc1OC` [Example 57], the pIC50 under setting [2] was greater than 6.30.
For `COc1cc(Cl)c(-c2nc(OCCN3CC[C@H](F)C3)nc3[nH]cc(C#N)c23)cc1OC` [Example 58], the pIC50 under setting [2] is greater than 6.30.
In the case of `CCN(CC)CCCOc1nc(-c2cc(OC)c(OC)cc2Cl)c2c(C#N)c[nH]c2n1` [Example 59], the pIC50 under setting [2] was greater than 6.30.
The same measure, in the same setting: as for `COc1cc(Cl)c(-c2nc(OCCCN3CCOCC3)nc3[nH]cc(C#N)c23)cc1OC` [Example 60], the figure is greater than 6.30; as for `COc1cc(Cl)c(-c2nc(OCCN3CCOCC3)nc3[nH]cc(C#N)c23)cc1OC` [Example 61], greater than 6.30; as for `COc1cc(-c2nc(OCCN3CCCC(F)(F)C3)nc3[nH]cc(C#N)c23)c(Cl)cc1C#N` [Example 62], greater than 6.30.
Consider `COc1cc(-c2nc(OCCN3CCCC(F)C3)nc3[nH]cc(C#N)c23)c(Cl)cc1C#N` (centres unmarked) [Example 63], for which the pIC50 under setting [2] was greater than 6.30.
Same read-out and setting: the figure for `COc1cc(Cl)c(-c2nc(SC)nc3[nH]cc(C#N)c23)cc1OCCN1CCC(F)(F)CC1` [Example 64] is greater than 6.30.
On to `COc1cc(Cl)c(-c2nc(OCCN3CC[C@@H](F)C3)nc3[nH]cc(C#N)c23)cc1OC` [Example 65], for which the pIC50 under setting [2] is greater than 6.30.
Same read-out and setting: the figure for `COc1cc(Cl)c(-c2nc(SC)nc3[nH]cc(C#N)c23)cc1OCCN1CCCC(F)(F)C1` [Example 66] is greater than 6.30; for `CCc1nc(-c2cc(OCCN(CC)CC)c(OC)cc2Cl)c2c(C#N)c[nH]c2n1` [Example 67] it is greater than 6.30.
Consider `CCN(CC)CCOc1cc(-c2nc(SC(C)C)nc3[nH]cc(C#N)c23)c(Cl)cc1OC` [Example 68], for which the pIC50 under setting [2] is greater than 6.30.
In the case of `CCN(CC)CCNc1nc(-c2cc(OC)c(OC)cc2Cl)c2c(C#N)c[nH]c2n1` [Example 69], the pIC50 under setting [2] is 5.00 to 6.30.
Take `COc1cc(Cl)c(-c2nc(C(C)C)nc3[nH]cc(C#N)c23)cc1OC` [Example 70]: under setting [2], the pIC50 is 5.00 to 6.30.
On to `COc1cc(Cl)c(-c2nc(OCCN3CCC(F)CC3)nc3[nH]cc(C#N)c23)cc1OC` [Example 71], for which, under setting [2], the pIC50 is greater than 6.30.
For the compound `COc1cc(Cl)c(-c2nc(SC)nc3[nH]cc(C#N)c23)cc1OCCN1CC[C@H](F)C1` [Example 73], the pIC50 under setting [2] is greater than 6.30.
As for `COc1cc(Cl)c(-c2nc(SC)nc3[nH]cc(C#N)c23)cc1OCCN1CCC(F)(F)C1` [Example 74], the pIC50 under setting [2] was greater than 6.30.
Regarding `COc1cc(Cl)c(-c2nc(SC(C)C)nc3[nH]cc(C#N)c23)cc1OCCN1CCC(F)(F)C1` [Example 75], the pIC50 under setting [2] is greater than 6.30.
Same read-out and setting: the figure for `COc1cc(Cl)c(-c2nc(SC(C)C)nc3[nH]cc(C#N)c23)cc1OCCN1CCC(F)(F)CC1` [Example 76] is greater than 6.30; for `CSc1nc(-c2cc3c(cc2Cl)OCO3)c2c(C#N)c[nH]c2n1` [Example 77] it is greater than 6.30.
On the same count and under the same terms, the figure for `COc1cc(Cl)c(-c2nc(SC(C)(C)C)nc3[nH]cc(C#N)c23)cc1OCCN1CC[C@@H](F)C1` [Example 78] is greater than 6.30; for `CCN(CC)CCOc1cc(-c2nc(OC(C)C)nc3[nH]cc(C#N)c23)c(Cl)cc1OC` [Example 79] it is greater than 6.30.
The same measure, in the same setting: as for `CCN(CC)CCOc1cc(-c2nc(OC3CCCC3)nc3[nH]cc(C#N)c23)c(Cl)cc1OC` [Example 80], the figure is greater than 6.30; as for `CCN(CC)CCOc1cc(-c2nc(SC3CCCC3)nc3[nH]cc(C#N)c23)c(Cl)cc1OC` [Example 81], greater than 6.30.
Regarding `CCN(CC)CCOc1cc(-c2nc(CC(C)C)nc3[nH]cc(C#N)c23)c(Cl)cc1OC` [Example 82], the pIC50 under setting [2] was 5.00 to 6.30.

(Values after patent publication US20090163490A1, “Pyrrolopyrimidine Derivatives Used As HSP90 Inhibitors” (VERNALIS (R&D) LTD., priority 2006, published 2009).)
